Experimental data published in the Kinase Knowledgebase extract (Sharma et al. 2016).
pIC50: −log10 of the molar value.

Biological target: MAPK14 (human) (UniProt Q16539)
Assay: Inhibition of MAPK14 Kinase Activity

MAPK14 (human), sequence (Q16539 whole entry, looked up): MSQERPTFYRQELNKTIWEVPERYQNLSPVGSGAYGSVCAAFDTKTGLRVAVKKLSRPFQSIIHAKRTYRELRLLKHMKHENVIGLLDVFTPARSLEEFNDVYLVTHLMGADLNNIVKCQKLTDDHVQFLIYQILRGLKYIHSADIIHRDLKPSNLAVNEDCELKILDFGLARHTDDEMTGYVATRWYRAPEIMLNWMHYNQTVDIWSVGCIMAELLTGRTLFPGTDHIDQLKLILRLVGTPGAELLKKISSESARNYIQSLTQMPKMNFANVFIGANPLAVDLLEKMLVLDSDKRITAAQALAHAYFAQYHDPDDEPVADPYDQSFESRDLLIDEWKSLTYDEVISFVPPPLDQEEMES

pIC50, 7.00 to 9.00:
C[C@H](O)Cn1c(=O)c(Oc2ccc(F)cc2F)cc2cnc(NC3CCCCC3)nc21
CNc1ncc2cc(Oc3ccc(F)cc3F)c(=O)n(C[C@@H](C)O)c2n1
C[C@@H](O)Cn1c(=O)c(Oc2ccc(F)cc2F)cc2cnc(N[C@@H](C)CO)nc21
C[C@H](CO)Nc1ncc2cc(Oc3ccc(F)cc3F)c(=O)n(C[C@@H](C)O)c2n1
C[C@@H](O)CNc1ncc2cc(Oc3ccc(F)cc3F)c(=O)n(C[C@@H](C)O)c2n1
C[C@H](O)Cn1c(=O)c(Oc2ccc(F)cc2F)cc2cnc(NC3CC3)nc21
C[C@H](Nc1ncc2cc(Oc3ccc(F)cc3F)c(=O)n(C[C@@H](C)O)c2n1)C(C)(C)O
CC(O)Cn1c(=O)c(Oc2ccc(F)cc2F)cc2cnc(NC3CCOCC3)nc21 (stereo unspecified)
CC[C@@H](C)Nc1ncc2cc(Oc3ccc(F)cc3F)c(=O)n(C[C@@H](C)O)c2n1
CC(=O)Cn1c(=O)c(Oc2ccc(F)cc2F)cc2cnc(N[C@@H](C)CO)nc21
C[C@@H](O)Cn1c(=O)c(Oc2ccc(F)cc2F)cc2cnc(NC3CC3)nc21
COC[C@H](C)Nc1ncc2cc(Oc3ccc(F)cc3F)c(=O)n(C(CCO)CCO)c2n1
CC[C@H](C)Nc1ncc2cc(Oc3ccc(F)cc3F)c(=O)n(C[C@@H](C)O)c2n1
C[C@H](O)Cn1c(=O)c(Oc2ccc(F)cc2F)cc2cnc(NCC(C)(C)C)nc21
COCCC(CCOC)Nc1ncc2cc(Oc3ccc(F)cc3F)c(=O)n(C[C@H](C)O)c2n1
C[C@H](O)Cn1c(=O)c(Oc2ccc(F)cc2F)cc2cnc(N[C@H](CO)[C@@H](C)O)nc21
O=c1c(Oc2ccc(F)cc2F)cc2cnc(NC3CCOCC3)nc2n1CCO
CC[C@H](C)Nc1ncc2cc(Oc3ccc(F)cc3F)c(=O)n(C[C@H](C)O)c2n1
C[C@@H](O)Cn1c(=O)c(Oc2ccc(F)cc2F)cc2cnc(NC(C)(C)CO)nc21
CC[C@H](CO)Nc1ncc2cc(Oc3ccc(F)cc3F)c(=O)n(C[C@@H](C)O)c2n1
CC[C@H](CO)Nc1ncc2cc(Oc3ccc(F)cc3F)c(=O)n(C[C@H](C)O)c2n1
CC[C@@H](C)Nc1ncc2cc(Oc3ccc(F)cc3F)c(=O)n(C[C@H](C)O)c2n1
C[C@@H](O)Cn1c(=O)c(Oc2ccc(F)cc2F)cc2cnc(NC3CCC3)nc21
CC[C@@H](CO)Nc1ncc2cc(Oc3ccc(F)cc3F)c(=O)n(C[C@H](C)O)c2n1
C[C@H](O)Cn1c(=O)c(Oc2ccc(F)cc2F)cc2cnc(N[C@@H](CO)CCO)nc21
C[C@H](O)Cn1c(=O)c(Oc2ccc(F)cc2F)cc2cnc(NC[C@@H](C)O)nc21
C[C@H](O)Cn1c(=O)c(Oc2ccc(F)cc2F)cc2cnc(NC(C)(C)CO)nc21
C[C@H](O)Cn1c(=O)c(Oc2ccc(F)cc2F)cc2cnc(NC(CO)CO)nc21
C[C@@H](O)Cn1c(=O)c(Oc2ccc(F)cc2F)cc2cnc(NCC3CC3)nc21
C[C@H](O)Cn1c(=O)c(Oc2ccc(F)cc2F)cc2cnc(NC3CCN(S(C)(=O)=O)CC3)nc21
C[C@@H](O)Cn1c(=O)c(Oc2ccc(F)cc2F)cc2cnc(NCC(C)(C)C)nc21
C[C@H](O)Cn1c(=O)c(Oc2ccc(F)cc2F)cc2cnc(NC3CCCC3)nc21
C[C@H](O)Cn1c(=O)c(Oc2ccc(F)cc2F)cc2cnc(N[C@H](CO)CCO)nc21
C[C@H](O)Cn1c(=O)c(Oc2ccc(F)cc2F)cc2cnc(NC(CCO)CCO)nc21
C[C@H](O)CNc1ncc2cc(Oc3ccc(F)cc3F)c(=O)n(C[C@@H](C)O)c2n1
C[C@H](O)Cn1c(=O)c(Oc2ccc(F)cc2F)cc2cnc(NC3CCOCC3)nc21
COC[C@H](C)Nc1ncc2cc(Oc3ccc(F)cc3F)c(=O)n(C[C@H](C)O)c2n1
C[C@H](O)Cn1c(=O)c(Oc2ccc(F)cc2F)cc2cnc(N[C@@H](C)CO)nc21
CC(=O)Cn1c(=O)c(Oc2ccc(F)cc2F)cc2cnc(N[C@H](C)CO)nc21
CCNc1ncc2cc(Oc3ccc(F)cc3F)c(=O)n(C[C@@H](C)O)c2n1
CC(C)CNc1ncc2cc(Oc3ccc(F)cc3F)c(=O)n(C[C@@H](C)O)c2n1
C[C@@H](O)Cn1c(=O)c(Oc2ccc(F)cc2F)cc2cnc(NC3CCOCC3)nc21
C[C@H](O)CNc1ncc2cc(Oc3ccc(F)cc3F)c(=O)n(C[C@H](C)O)c2n1
C[C@H](O)Cn1c(=O)c(Oc2ccc(F)cc2F)cc2cnc(N[C@H](C)CO)nc21
CC(C)Nc1ncc2cc(Oc3ccc(F)cc3F)c(=O)n(C[C@H](C)O)c2n1
CC(C)Nc1ncc2cc(Oc3ccc(F)cc3F)c(=O)n(C[C@@H](C)O)c2n1
